Patent publication US12590953B2, “Methods for screening cereblon modifying compounds” (CELGENE CORPORATION, priority 2018, dated 2026)
Entries after “also recorded” stand apart in the source; their conditions may differ. Read-outs that look alike come from different tables or passages of the source.

Key:
[1] = test system: rabbit SALL4 zinc finger / rabbit cereblon; assay: In vitro ubiquitination of rabbit SALL4 zinc finger by rabbit cereblon; assay type: biochemical; details: rabbit zinc finger amino acids 357-385; with thalidomide
Experimental: (§1) Full length human cereblon, full length mouse cereblon, and full length rabbit cereblon were co-expressed with full length human DDB1 in SF9 insect cells in ESF921 medium in the presence of 50 uM zinc acetate. Cells were resuspended in buffer containing 50 mM Tris-HCl pH 7.5, 500 mM NaCl, 10 mM imidazole, 10% glycerol, 2 mM TCEP, 1× Protease Inhibitor Cocktail (San Diego Bioscience), and 40,000 U Benzonase (Novagen), and sonicated for 30 s. Lysate was clarified by high speed spin at 30,000 rpm for 30 minutes, and clarified lysate was incubated with Ni-NTA affinity resin (Qiagen) for 1 hour. Complex was eluted with buffer containing 500 mM imidazole, and the ZZ-domain-6×His tag removed by thrombin cleavage (Enzyme Research) overnight, combined with dialysis in 10 mM imidazole buffer. Cleaved eluate was incubated with Ni-NTA affinity resin (Qiagen), and the flow-through diluted to 200 mM NaCl for further purification over a Sephacryl S-400 16/60 column (GE Healthcare) in buffer containing 10 mM HEPES pH 7.0, 240 mM NaCl, and 3 mM TECP.
(§2) Purified E1, E2, ubiquitin, Cul4A-Rbx1, cereblon-DDB1, and GSPT1 proteins were used to reconstitute the ubiquitination of MBP-fused WT and mutant proteins in vitro. Substrate proteins purified by maltose affinity resin (NEB) were incubated at an approximate concentration of 30 uM. […]

[2] = target: T1, mouse SALL4 zinc fingers / human cereblon (Homo sapiens, UniProt Q96SW2); assay: In vitro ubiquitination of mouse SALL4 zinc fingers by human cereblon; assay type: biochemical; details: thalidomide vs DMSO
T1 construct: Human cereblon-DDB1 (cereblon amino acids 40-442 and full length DDB1); the mouse SALL4 zinc finger amino acids 410-438 (orthologous to human ZF2); ZZ-domain-6xHis-thrombin site (N, cleaved yes); made in house; host or cells: SF9 insect cells (cereblon-DDB1, Cul4A-Rbx1); E. coli BL21 (DE3) Star (MBP-zinc finger)
Experimental: as §1, §2

[3] = target: T2, mouse SALL4 zinc fingers / human cereblon (UniProt Q8BX22+Q96SW2); assay: as above; assay type: biochemical; details: with thalidomide
T2 construct: Human cereblon-DDB1 (cereblon amino acids 40-442 and full length DDB1); the mouse SALL4 zinc finger amino acids 410-438 (orthologous to human ZF2); ZZ-domain-6xHis-thrombin site (N, cleaved yes); made in house; host or cells: SF9 insect cells (cereblon-DDB1, Cul4A-Rbx1); E. coli BL21 (DE3) Star (MBP-zinc finger)
Experimental: as §1, §2

[4] = test system: ZFP91 cereblon-binding zinc finger (a.a. 395-423) / rabbit cereblon; assay: In vitro ubiquitination of ZFP91 zinc finger by rabbit cereblon; assay type: biochemical; details: with thalidomide
Experimental: Glycine degron-containing zinc fingers are highlighted with stars. […] Ubiquitination reactions were separated by SDS-PAGE followed by anti-MBP western blot. […] Results in panels b and c are representative of 3 independent experiments.
as §1, with “TECP. […]” for “TECP.”

huCRBN mice = assay type: in vivo; details: for Live fetuses: female, HOM huCRBN (humanized cereblon)
Experimental: Thalidomide was administered to female HOM huCRBN mice by oral gavage at dose levels of 0 (1.0% [w/v] carboxymethylcellulose [1500-3000 cP] in RO deionized water), 100, 300, or 1000 mg/kg/day once daily on Gestation Day [GD] 6 through 15. On GD 15, blood samples were collected from the submandibular vein of mice assigned to study at 0.5, 1, 3, 6, and 24 hours postdose for bioanalytical and toxicokinetic evaluation. […] Mice were euthanized and examined, and a gross necropsy was performed. The ovaries and uterus were examined for number and distribution of corpora lutea, implantation sites, placentae (size, color, and shape), live and dead fetuses, and early and late resorptions. Fetuses were euthanized by an intraperitoneal injection of sodium pentobarbital (390 mg/mL). Fetuses were weighed and examined for sex and external abnormalities. Late resorptions were examined for external abnormalities and sex to the extent possible. The body weight of each fetus was recorded. Fetuses were individually identified with the study number, litter number and uterine distribution. Approximately one-half of the fetuses in each litter were examined for visceral abnormalities by using an adaptation of the sectioning technique of Wilson. Each fetus was fixed in Bouin's solution; sections were stored in alcohol. The remaining fetuses (approximately one-half of the fetuses in each litter) were examined for skeletal abnormalities after staining with alizarin red S. Following examination, skeletal preparations were retained in glycerin with thymol added as a preservative.

CK1α = CK1α (Homo sapiens, UniProt P48729); assay: Degradation of CK1α (data not shown)
CK1α, sequence (Q96SW2 whole entry partner): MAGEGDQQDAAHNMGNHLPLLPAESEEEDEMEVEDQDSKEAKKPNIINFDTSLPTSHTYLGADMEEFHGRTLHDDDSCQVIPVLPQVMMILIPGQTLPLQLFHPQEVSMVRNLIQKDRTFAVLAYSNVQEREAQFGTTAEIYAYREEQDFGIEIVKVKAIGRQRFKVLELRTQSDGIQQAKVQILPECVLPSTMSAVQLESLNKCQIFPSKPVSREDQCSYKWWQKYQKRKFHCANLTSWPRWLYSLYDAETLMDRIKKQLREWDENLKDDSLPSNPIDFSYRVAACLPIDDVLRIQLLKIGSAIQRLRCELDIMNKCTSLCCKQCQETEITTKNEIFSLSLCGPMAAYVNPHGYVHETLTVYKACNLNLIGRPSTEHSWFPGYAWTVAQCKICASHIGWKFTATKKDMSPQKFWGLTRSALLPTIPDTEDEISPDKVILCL
CK1α, sequence (Q16531 whole entry partner): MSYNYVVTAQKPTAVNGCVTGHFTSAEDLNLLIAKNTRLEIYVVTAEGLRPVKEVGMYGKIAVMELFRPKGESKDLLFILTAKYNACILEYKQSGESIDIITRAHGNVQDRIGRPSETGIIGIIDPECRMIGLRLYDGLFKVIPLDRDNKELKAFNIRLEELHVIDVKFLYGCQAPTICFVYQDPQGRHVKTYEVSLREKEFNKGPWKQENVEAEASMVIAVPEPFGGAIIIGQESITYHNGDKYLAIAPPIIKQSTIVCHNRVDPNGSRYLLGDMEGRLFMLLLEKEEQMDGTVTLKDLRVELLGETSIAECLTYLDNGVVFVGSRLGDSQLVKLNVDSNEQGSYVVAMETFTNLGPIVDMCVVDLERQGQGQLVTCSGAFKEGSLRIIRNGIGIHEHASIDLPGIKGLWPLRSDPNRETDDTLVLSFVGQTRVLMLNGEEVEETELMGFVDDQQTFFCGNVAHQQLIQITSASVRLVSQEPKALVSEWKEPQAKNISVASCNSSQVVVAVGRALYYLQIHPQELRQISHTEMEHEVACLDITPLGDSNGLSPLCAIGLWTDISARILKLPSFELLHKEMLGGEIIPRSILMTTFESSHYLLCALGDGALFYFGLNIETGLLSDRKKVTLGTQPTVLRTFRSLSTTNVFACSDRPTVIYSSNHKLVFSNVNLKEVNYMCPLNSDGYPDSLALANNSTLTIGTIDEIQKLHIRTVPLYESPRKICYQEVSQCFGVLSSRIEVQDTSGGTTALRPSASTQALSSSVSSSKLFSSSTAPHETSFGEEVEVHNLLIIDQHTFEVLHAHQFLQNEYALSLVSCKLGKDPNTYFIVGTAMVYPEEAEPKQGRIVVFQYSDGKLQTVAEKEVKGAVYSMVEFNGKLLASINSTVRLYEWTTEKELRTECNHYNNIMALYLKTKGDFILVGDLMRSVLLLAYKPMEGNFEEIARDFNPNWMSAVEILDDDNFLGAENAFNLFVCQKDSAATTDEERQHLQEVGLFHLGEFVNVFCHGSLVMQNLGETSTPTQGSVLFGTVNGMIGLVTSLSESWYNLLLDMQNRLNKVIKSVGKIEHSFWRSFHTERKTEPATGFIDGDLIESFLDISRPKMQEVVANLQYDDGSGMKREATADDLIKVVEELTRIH
CK1α, sequence (P48729 whole entry): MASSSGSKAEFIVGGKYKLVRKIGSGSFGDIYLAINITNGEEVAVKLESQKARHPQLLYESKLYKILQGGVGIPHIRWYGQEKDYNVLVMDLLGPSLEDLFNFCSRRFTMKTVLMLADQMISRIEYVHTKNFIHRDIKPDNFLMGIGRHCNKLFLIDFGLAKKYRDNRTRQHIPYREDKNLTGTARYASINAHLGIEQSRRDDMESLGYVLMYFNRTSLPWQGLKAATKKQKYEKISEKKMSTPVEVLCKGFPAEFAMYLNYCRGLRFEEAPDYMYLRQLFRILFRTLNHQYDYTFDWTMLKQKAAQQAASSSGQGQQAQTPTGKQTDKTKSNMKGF

T2 sequence (Q96SW2 40-442): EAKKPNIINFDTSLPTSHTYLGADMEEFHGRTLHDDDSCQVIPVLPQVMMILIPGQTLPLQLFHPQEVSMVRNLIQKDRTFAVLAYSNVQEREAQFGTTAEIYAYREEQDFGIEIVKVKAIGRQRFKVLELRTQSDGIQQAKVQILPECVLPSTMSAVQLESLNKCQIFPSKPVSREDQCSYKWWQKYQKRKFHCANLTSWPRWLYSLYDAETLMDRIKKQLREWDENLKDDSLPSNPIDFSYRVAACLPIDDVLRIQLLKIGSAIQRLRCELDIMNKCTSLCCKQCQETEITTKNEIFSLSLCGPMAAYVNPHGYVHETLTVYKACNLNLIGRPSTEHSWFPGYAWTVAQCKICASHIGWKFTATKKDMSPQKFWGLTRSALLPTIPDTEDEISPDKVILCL
T2 sequence (Q16531 whole entry partner, the tested form may be a part): as the sequence (Q16531 whole entry partner) above
T2 sequence (Q8BX22 410-438): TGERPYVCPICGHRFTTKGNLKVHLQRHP
T1 sequence (Q96SW2 40-442): as the sequence (Q96SW2 40-442) above
T1 sequence (Q16531 whole entry partner, the tested form may be a part): as the sequence (Q16531 whole entry partner) above

## O=C1CCC(N2C(=O)c3ccccc3C2=O)C(=O)N1 (stereo not shown) [thalidomide]
[1]
  Ubiquitination of rabbit SALL4 zinc finger (orthologous to human ZF2) by rabbit cereblon: could be ubiquitinated by rabbit cereblon in a thalidomide-dependent manner
[2]
  Ubiquitination of all 4 glycine-motif mouse SALL4 zinc fingers by human cereblon: none of them were efficiently ubiquitinated by either mouse cereblon or human cereblon; also recorded: not efficiently ubiquitinated by human or mouse cereblon
[3]
  Ubiquitination of mouse SALL4 zinc finger (orthologous to human ZF2) by human cereblon: not able to ubiquitinate the mouse SALL4 zinc finger; also recorded: not efficiently ubiquitinated by mouse or human cereblon
[4]
  Ubiquitination of ZFP91 zinc finger (a.a. 395-423) by rabbit cereblon: efficiently ubiquitinated by human and rabbit cereblon
huCRBN mice; female huCRBN mice, 0, 100, 300, or 1000 mg/kg/day, GD 6 through 15
  Maternal survival: All animals survived to scheduled necropsy on GD 18
huCRBN mice; mouse, in vivo, 100 mg/kg/day
  Live fetuses: 9
huCRBN mice; mouse, in vivo, 300 mg/kg/day
  Live fetuses: 7
huCRBN mice; mouse, in vivo, 1000 mg/kg/day
  Live fetuses: 8
huCRBN mice; mouse, in vivo, 1000 mg/kg
  Limb defects (fetal skeleton, alizarin red S): limb defects were not observed
CK1α
  Triggering the degradation of CK1α: does not trigger the degradation of CK1α
